This note sets out measurements from US5672609A, “Pyridine compounds, intermediates compositions and methods of use” (Eli Lilly and Company, priority 1996, dated 1997).

Format in all cases: in vivo, female Sprague Dawley rats
One assay relates to uterus. In words: Uterine weight in ovariectomized rats, 4-day oral dosing (Table 1). To be noted: Rattus norvegicus, po, 96 h, OVX rats, daily for 4 days, read-out: Uterine Wt. (% inc. vs. OVX); for change in vivo at 1 mg/kg: 1 mg/kg oral; for change in vivo at 10 mg/kg: 10 mg/kg oral; for change in vivo at 25 mg/kg: 25 mg/kg oral; for change in vivo at 0.1 mg/kg: 0.1 mg/kg oral. The protocol: In the examples illustrating the methods, a post-menopausal model was used in which effects of different treatments upon circulating lipids were determined.
(§1) Seventy-five day old female Sprague Dawley rats (weight range of 200 to 225 g) were obtained from Charles River Laboratories (Portage, Mich.). The animals were either bilaterally ovariectomized (OVX) or exposed to a sham surgical procedure at Charles River Laboratories, and then shipped after one week. Upon arrival, they were housed in metal hanging cages in groups of 3 or 4 per cage and had ad libitum access to food (calcium content approximately 0.5%) and water for one week. Room temperature was maintained at 22.2° ±1.7° C. with a minimum relative humidity of 40%. The photoperiod in the room was 12 hours light and 12 hours dark.
(§2) Dosing Regimen Tissue Collection. After a one week acclimation period (therefore, two weeks post-OVX) daily dosing with test compound was initiated. 17α-ethynyl estradiol or the test compound were given orally, unless otherwise stated, as a suspension in 1% carboxymethylcellulose or dissolved in 20% cyclodextrin. Animals were dosed daily for 4 days. Following the dosing regimen, animals were weighed and anesthetized with a ketamine: Xylazine (2:1, V:V) mixture and a blood sample was collected by cardiac puncture. The animals were then sacrificed by asphyxiation with CO2, the uterus was removed through a midline incision, and a wet uterine weight was determined.
(§3) Data presented in Table 1 below show comparative results among ovariectomized rats, rats treated with 17α-ethynyl estradiol (EE2; an orally available form of estrogen), and rats treated with certain compounds of the present invention. […] This uterine response to estrogen is well recognized in the art.
(§4) The data presented in Table 1 below reflects the response of 5 to 6 rats per treatment.

Assay [1] deals with Uterine Eosinophil Peroxidase (EPO). In words: Uterine Eosinophil Peroxidase (EPO) Assay (Table 1). More on the design: key to Uterine EPO (V. max): Vmax of absorbance increase at 450 nm, monitored over 1 min. To be noted: OVX rats, daily for 4 days.
Source text: as §1, §2
Uterine Eosinomhil Peroxidase (EPO) Assay. Uteri were kept at 4° C. until time of enzymatic analysis. The uteri were then homogenized in 50 volumes of 50 mM Tris buffer (pH-8.0) containing 0.005% Triton X-100. Upon addition of 0.01% hydrogen peroxide and 10 mM O-phenylenediamine (final concentrations) in Tris buffer, increase in absorbance was monitored for one minute at 450 nm. The presence of eosinophils in the uterus is an indication of estrogenic activity of a compound. The maximal velocity of a 15 second interval was determined over the initial, linear portion of the reaction curve.
As is expressed in the below data, estrogenicity also was assessed by evaluating the response of eosinophil infiltration into the uterus.
as §4

For a further assay, the system named is Serum cholesterol. In words: Serum cholesterol in ovariectomized rats, 4-day oral dosing (Table 1). As to conditions: Rattus norvegicus, po, 96 h, OVX rats, daily for 4 days; for inhibition in vivo at 1 mg/kg: 1 mg/kg oral; for inhibition in vivo at 1 mg/kg / inhibition in vivo at 10 mg/kg / inhibition in vivo at 25 mg/kg / inhibition in vivo at 0.1 mg/kg: read-out: Serum Cholesterol (% dec. vs. OVX); for inhibition in vivo at 10 mg/kg: 10 mg/kg oral; for inhibition in vivo at 25 mg/kg: 25 mg/kg oral; for ED50: oral, dose column in mg/kg, read-out: ED50 (effective dose to dec. serum chol. by 50%); for inhibition in vivo at 0.1 mg/kg: 0.1 mg/kg oral.
Source text: as §1, §2
Cholesterol Analysis. Blood samples were allowed to clot at room temperature for 2 hours, and serum was obtained following centrifugation for 10 minutes at 3000 rpm. Serum cholesterol was determined using a Boehringer Mannheim Diagnostics high performance cholesterol assay. Briefly the cholesterol was oxidized to cholest-4-en-3-one and hydrogen peroxide. The hydrogen peroxide was then reacted with phenol and 4-aminophenazone in the presence of peroxidase to produce a p-quinone imine dye, which was read spectrophotometrically at 500 nm. Cholesterol concentration was then calculated against a standard curve. The entire assay was automated using a Biomek Automated Workstation.
as §3, §4

On to `COc1ccc(-c2ccc(C)nc2-c2ccc(OCCN(C)C)cc2)cc1` [Example 1, 2-[4-[2-(1-N,N-Dimethylamino)ethoxy]phenyl]-3-(4-methoxyphenyl)-6-methylpyridine], for which, in the assay on uterus, the change in vivo at 1 mg/kg is 0.6%, the change in vivo at 10 mg/kg was 2.6% and the change in vivo at 25 mg/kg stood at 5.2%. Moreover, the “Uterine EPO (V. max)” value in assay [1] (1 mg/kg oral) is 2.9. For the same compound, in assay [1] (10 mg/kg oral), the “Uterine EPO (V. max)” value was determined as 2.5. Further, in assay [1] (25 mg/kg oral), the “Uterine EPO (V. max)” value stood at 2.3. In the assay on Serum cholesterol, the inhibition in vivo at 1 mg/kg was 15%; the inhibition in vivo at 10 mg/kg is 14.9%; the inhibition in vivo at 25 mg/kg turned out to be 22.2%; the median effective dose (ED50) – broadly, the dose that gives a 50% effect, or the effect in half of the subjects – was more than 1000 mg/kg.
On to `COc1ccc(-c2ccc(C)nc2-c2ccc(OCCN3CCCC3)cc2)cc1` [Example 2, 2-[4-[2-(1-Pyrrolidinyl)ethoxy]phenyl]-3-(4-methoxyphenyl)-6-methylpyridine], for which, in the assay on uterus, the change in vivo at 1 mg/kg was found to be 12.7%, the change in vivo at 10 mg/kg was -12.5% and the change in vivo at 25 mg/kg came to 19.5%. Moreover, the “Uterine EPO (V. max)” value in assay [1] (1 mg/kg oral) was 6.6. For the same compound, in assay [1] (10 mg/kg oral), the “Uterine EPO (V. max)” value was found to be 5.9. Besides, the “Uterine EPO (V. max)” value in assay [1] (25 mg/kg oral) was found to be 59.8. Further, in the assay on Serum cholesterol, the inhibition in vivo at 1 mg/kg was -23.6%, the inhibition in vivo at 10 mg/kg is -33.5%, the inhibition in vivo at 25 mg/kg was 9.7% and the ED50 is more than 10 mg/kg.
For the compound `COc1ccc(-c2ccc(C)nc2-c2ccc(OCCN3CCOCC3)cc2)cc1` [Example 3, 2-[4-[2-(4-Morpholinyl)ethoxy]phenyl]-3-(4-methoxyphenyl)-6-methylpyridine], in the assay on uterus, the change in vivo at 1 mg/kg was 4.9%, the change in vivo at 10 mg/kg was -6.1% and the change in vivo at 25 mg/kg was -2.3%. In addition, in assay [1] (1 mg/kg oral), the “Uterine EPO (V. max)” value is given as 10.8. In addition, the “Uterine EPO (V. max)” value in assay [1] (10 mg/kg oral) was found to be 6. For the same compound, the “Uterine EPO (V. max)” value in assay [1] (25 mg/kg oral) was determined as 3.8. Further, in the assay with Serum cholesterol, the inhibition in vivo at 1 mg/kg was determined as 4.5%, the inhibition in vivo at 10 mg/kg turned out to be 1.4%, the inhibition in vivo at 25 mg/kg was -11.6% and the ED50 is more than 10 mg/kg.
For `COc1ccc(-c2ccc(-c3ccc(OC)cc3)c(-c3ccc(OCCN4CCCC4)cc3)n2)cc1` [Example 5, 2-[4-[2-(1-Pyrrolidinyl)ethoxy]phenyl]-3,6-bis(4-methoxyphenyl)pyridine], in the assay with uterus, the change in vivo at 0.1 mg/kg is -6.5%, the change in vivo at 1 mg/kg is -7.6% and the change in vivo at 10 mg/kg amounted to 27.2%. Further, the “Uterine EPO (V. max)” value in assay [1] (0.1 mg/kg oral) was determined as 4.5. For the same compound, the “Uterine EPO (V. max)” value in assay [1] (1 mg/kg oral) turned out to be 4.2. For the same compound, the “Uterine EPO (V. max)” value in assay [1] (10 mg/kg oral) is recorded as 23.1. Further, in the assay on Serum cholesterol, the inhibition in vivo at 0.1 mg/kg came to 2.4%, the inhibition in vivo at 1 mg/kg is 14%, the inhibition in vivo at 10 mg/kg was determined as 23.5% and the ED50 is more than 10 mg/kg.
In the case of `COc1ccc(-c2ccc(C)nc2-c2ccc(OCCN3CCCCC3)cc2)cc1` [Example 7, 2-[4-[2-(1-Piperidinyl)ethoxy]phenyl]-3-(4-methoxyphenyl)-6-methylpyridine], in the assay with uterus, the change in vivo at 25 mg/kg was -5.6%. Also, the “Uterine EPO (V. max)” value in assay [1] (25 mg/kg oral) is listed as 3.6. Besides, in the assay on Serum cholesterol, the inhibition in vivo at 0.1 mg/kg amounted to 23.2% and the inhibition in vivo at 25 mg/kg was -1.2%.
`Cc1ccc(-c2ccc(O)cc2)c(-c2ccc(OCCN(C)C)cc2)n1` [Example 8, 2-[4-[2-(N,N-Dimethylamino)ethoxy]phenyl]-3-(4-hydroxyphenyl)-6-methylpyridine]: in the assay with uterus, the change in vivo at 1 mg/kg is -1.5%, the change in vivo at 10 mg/kg was -1% and the change in vivo at 25 mg/kg was 41.6%. Further, the “Uterine EPO (V. max)” value in assay [1] (1 mg/kg oral) was found to be 5. Besides, the “Uterine EPO (V. max)” value in assay [1] (10 mg/kg oral) is 6.7. Besides, in assay [1] (25 mg/kg oral), the “Uterine EPO (V. max)” value came to 58.6. Besides, in the assay with Serum cholesterol, the inhibition in vivo at 1 mg/kg amounted to 15.7%, the inhibition in vivo at 10 mg/kg came to 1.5%, the inhibition in vivo at 25 mg/kg came out at 46.4% and the median effective dose (ED50) came out at 26 mg/kg.
With `Cc1ccc(-c2ccc(O)cc2)c(-c2ccc(OCCN3CCCCC3)cc2)n1` [Example 10, 2-[4-[2-(1-Piperidinyl)ethoxy]phenyl]-3-(4-hydroxyphenyl)-6-methylpyridine], in the assay with uterus, the change in vivo at 1 mg/kg is 3.4%, the change in vivo at 10 mg/kg stood at 7% and the change in vivo at 25 mg/kg came to 47%. For the same compound, in assay [1] (1 mg/kg oral), the “Uterine EPO (V. max)” value is reported as 4.4. In assay [1] (10 mg/kg oral), the “Uterine EPO (V. max)” value was 3.4. For the same compound, in assay [1] (25 mg/kg oral), the “Uterine EPO (V. max)” value worked out at 6.8. Further, in the assay on Serum cholesterol, the inhibition in vivo at 1 mg/kg came to 8.4%, the inhibition in vivo at 10 mg/kg amounted to 1.7%, the inhibition in vivo at 25 mg/kg was 17.9% and the ED50 was more than 10 mg/kg.
Consider `Cc1ccc(-c2ccc(O)cc2)c(-c2ccc(OCCN3CCOCC3)cc2)n1` [Example 11, 2-[4-[2-(4-Morpholinyl)ethoxy]phenyl]-3-(4-hydroxyphenyl)-6-methylpyridine], for which, in the assay with uterus, the change in vivo at 1 mg/kg is -0.8%, the change in vivo at 10 mg/kg came to 27% and the change in vivo at 25 mg/kg turned out to be 5%. In assay [1] (1 mg/kg oral), the “Uterine EPO (V. max)” value was determined as 4.8. Besides, the “Uterine EPO (V. max)” value in assay [1] (10 mg/kg oral) is listed as 4.9. The “Uterine EPO (V. max)” value in assay [1] (25 mg/kg oral) turned out to be 4.4. Further, in the assay with Serum cholesterol, the inhibition in vivo at 1 mg/kg was determined as 16%, the inhibition in vivo at 10 mg/kg came to 18.2%, the inhibition in vivo at 25 mg/kg was -3.6% and the ED50 was more than 10 mg/kg.
`Oc1ccc(-c2ccc(-c3ccccc3)nc2-c2ccc(OCCN3CCCC3)cc2)cc1` [Example 13, 2-[4-[2-(1-Pyrrolidinyl)ethoxy]phenyl]-3-(4-hydroxyphenyl)-6-phenylpyridine]: in the assay on uterus, the change in vivo at 0.1 mg/kg was determined as 23.8%, the change in vivo at 1 mg/kg amounted to 54%, the change in vivo at 10 mg/kg turned out to be 38.8% and the change in vivo at 25 mg/kg amounted to 35.5%. Further, the “Uterine EPO (V. max)” value in assay [1] (0.1 mg/kg oral) is 4.5. Moreover, in the assay with Serum cholesterol, the inhibition in vivo at 0.1 mg/kg amounted to 1.8%, the inhibition in vivo at 1 mg/kg is 53.8%, the inhibition in vivo at 10 mg/kg was determined as 36.8% and the ED50 is less than 1 mg/kg.
